13 molecules from patent publication US20260085067A1, “CYCLIC SULFONAMIDE RIBONUCLEOTIDE REDUCTASE (RNR) INHIBITORS AND USES THEREOF” (Boundless Bio, Inc., priority 2022, published 2026) can be followed below.

The target in one series is T1, RNR (RNR1:RNR2 1:1) (Homo sapiens, UniProt P23921).
T1 sequence (P23921 1-792): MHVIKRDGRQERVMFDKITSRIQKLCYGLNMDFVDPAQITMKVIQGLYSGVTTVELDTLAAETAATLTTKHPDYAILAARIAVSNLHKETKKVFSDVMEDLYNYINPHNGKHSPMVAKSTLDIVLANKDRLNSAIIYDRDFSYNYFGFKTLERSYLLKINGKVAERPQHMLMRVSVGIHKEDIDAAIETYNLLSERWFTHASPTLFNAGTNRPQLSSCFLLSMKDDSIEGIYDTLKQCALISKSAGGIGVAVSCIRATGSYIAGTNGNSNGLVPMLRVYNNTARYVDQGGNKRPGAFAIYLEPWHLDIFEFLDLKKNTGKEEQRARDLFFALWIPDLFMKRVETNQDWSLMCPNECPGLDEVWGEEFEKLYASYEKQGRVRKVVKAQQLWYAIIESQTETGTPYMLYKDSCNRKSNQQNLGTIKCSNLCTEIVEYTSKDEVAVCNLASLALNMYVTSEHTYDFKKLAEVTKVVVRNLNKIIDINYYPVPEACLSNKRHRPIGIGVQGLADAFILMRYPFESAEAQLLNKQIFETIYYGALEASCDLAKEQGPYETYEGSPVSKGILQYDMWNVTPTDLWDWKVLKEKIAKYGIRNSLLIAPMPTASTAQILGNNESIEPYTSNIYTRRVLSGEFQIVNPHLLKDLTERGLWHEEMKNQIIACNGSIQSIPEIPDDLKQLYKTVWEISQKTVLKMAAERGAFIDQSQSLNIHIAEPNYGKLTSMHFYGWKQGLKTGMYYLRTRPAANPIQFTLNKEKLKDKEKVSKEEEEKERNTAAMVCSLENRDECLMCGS
The experiment in a line: RNR enzyme activity, rapid-fire mass spectrometry (RF/MS) assay. The series is classed as biochemical. The following applies: [RNR] 50 nM, 1:1 RNR1:RNR2; CDP 5 μM; ATP 1 mM; 37° C., 45 min; compounds screened up to 50 μM. The gist of the method:
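Human RNR (50 nM final, RNR1:RNR2 1:1) pre-incubated 15 min at room temperature, then reacted 45 min at 37 °C with 5 μM CDP and 1 mM ATP, no NADPH. Reaction quenched with 6% HCOOH; product quantified by rapid-fire mass spectrometry.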

Series [1] concerns pCHK1 (S345) in Colo320 DM cells. The experiment in a line: Alphalisa assay, detection of pCHK1 (S345) in Colo320 DM cells. The following applies: Homo sapiens, COLO 320DM, compound overnight (approximately 16 hours). The series is classed as cell-based, human. The method, boiled down:
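Colo320 DM cells plated overnight, then exposed to compound for about 16 h at 37 °C (DMSO <0.5%). Cells lysed and phospho-CHK1 (S345) quantified by AlphaLisa SureFire with sequential 60 min acceptor and donor incubations at room temperature.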
A general note: Alpha assays give light when donor and acceptor beads are brought close together.

The subject of the next series is human hepatocytes. As to the kind of experiment: Human hepatocyte stability assay. Format: in vitro ADME. The following applies: 0.5×10^6 viable cells/ml, time points 0.5 and 60 minutes. The method, then: 1. 10 mM stock solutions of test compounds and positive control were prepared in DMSO. Thawing medium and supplement incubation medium (serum-free) were placed in a 37° C. water bath for at least 15 minutes prior to use.
2. Stock solutions were diluted to 100 μM by combining 198 μL acetonitrile and 2 μL of 10 mM stock solution. Verapamil was use as positive control in the assay.
3. Vials of cryopreserved human hepatocytes were removed from storage, while ensuring that vials remain at cryogenic temperatures. The pressure was removed by loosening and re-tightening the cap. The vials were thawed in a 37° C. water bath with gentle shaking. Vials remained in the water bath until all ice crystals had dissolved and were no longer visible. Vials were sprayed with 70% ethanol before being transferred to a biosafety cabinet. Then the contents were poured into a 50 mL thawing medium conical tube. Vials were centrifuged at 100 g for 10 minutes at room temperature. Thawing medium was aspirated and hepatocytes were re-suspended with serum-free incubation medium to yield ˜1.5×10^6 cells/mL.
4. Cell viability and density were counted using Cellometer® Vision, and then cells were diluted with serum-free incubation medium to a working cell density of 0.5×10^6 viable cells/ml.
5. Aliquots of 198 μL hepatocytes were dispensed into each well of a 96-well non-coated plate. The plate was placed in the incubator on an orbital shaker at 500 rpm for approximately 10 minutes.
6. Aliquots of 2 μL of the 100 μM test compounds or verapamil were added into respective wells of the non-coated 96-well plate to start the reaction. This assay was performed in duplicate. The plate was incubated in the incubator on an orbital shaker at 500 rpm for the designed time points.
7.25 μL of contents were transferred and mixed with 5 volumes (125 μL) of cold acetonitrile with IS (100 nM alprazolam, 200 nM caffeine, 100 nM labetalol and 100 nM tolbutamide) to terminate the reaction at time points of 0.5 and 60 minutes. Samples were centrifuged for 30 minutes at 3,220 g. Then transfer 100 μL of the supernatant to new 96-well plates for analysis. Add 100 μL of distilled water to each sample and mix for analysis by LC-MS/MS.
All calculations were carried out using Microsoft Excel. Peak areas were determined from extracted ion chromatograms. The in vitro half-life (tin) of the parent compound was determined by regression analysis of the percent parent disappearance vs. time curve. • a. The in vitro half-life (in vitro tin) was determined from the slope value: in vitro t1/2=0.693/k • b. Conversion of the in vitro tin (in min) into the in vitro intrinsic clearance (in vitro CLint, in μL/min/10^6 cells) was done using the following equation: […]

For `Cc1ccc(F)c([C@@H](C)[C@@H](c2n[nH]c(=O)o2)N2CCOc3cc(Cl)ccc3S2(=O)=O)c1C` [Example 2, 5-((1S,2R)-1-(7-chloro-1,1-dioxido-3,4-dihydro-2H-benzo[b][1,4,5]oxathiazepin-2-yl)-2-(6-fluoro-2,3-dimethylphenyl)propyl)-1,3,4-oxadiazol-2(3H)-one], the values for the IC50 (on RNR (RNR1:RNR2 1:1); in series [1]) were less than 20 nM and 1000 to 5000 nM, respectively. Moreover, in the series on human hepatocytes, the Clhep result is “A (0 ml/min/kg ≤ Clhep ≤ 10 ml/min/kg)”.

`CC(=O)c1cc(Cl)cc2c1S(=O)(=O)N([C@H](c1n[nH]c(=O)o1)[C@H](C)c1c(F)ccc(C)c1C)CN2C` [Example 75, 5-((1S,2R)-1-(8-acetyl-6-chloro-4-methyl-1,1-dioxido-3,4-dihydro-2H-benzo[e][1,2,4]thiadiazin-2-yl)-2-(6-fluoro-2,3-dimethylphenyl)propyl)-1,3,4-oxadiazol-2 (3H)-one]: the IC50 on RNR (RNR1:RNR2 1:1) was less than 20 nM; in series [1], no more than 1000 nM. Also, in the series with human hepatocytes, the Clhep entry is recorded as “B (10 ml/min/kg < Clhep ≤ 20 ml/min/kg)”.

`Cc1ccc(F)c([C@@H](C)[C@@H](c2n[nH]c(=O)o2)N2CNc3cc(Cl)ccc3S2(=O)=O)c1C` [Example 8, 5-((1S,2R)-1-(6-chloro-1,1-dioxido-3,4-dihydro-2H-benzo[e][1,2,4]thiadiazin-2-yl)-2-(6-fluoro-2,3-dimethylphenyl)propyl)-1,3,4-oxadiazol-2 (3H)-one]: the results for the IC50 (at RNR (RNR1:RNR2 1:1); in series [1]) were 20 to 100 nM and no more than 1000 nM, respectively. For the same molecule, the Clhep result in the series on human hepatocytes was “B (10 ml/min/kg < Clhep ≤ 20 ml/min/kg)”.

Take `Cc1ccc(F)c([C@@H](C)[C@@H](c2n[nH]c(=O)o2)N2CN(C)c3cc(Cl)ccc3S2(=O)=O)c1C` [Example 1, 5-((1S,2R)-1-(6-chloro-4-methyl-1,1-dioxido-3,4-dihydro-2H-benzo[e][1,2,4]thiadiazin-2-yl)-2-(6-fluoro-2,3-dimethylphenyl)propyl)-1,3,4-oxadiazol-2(3H)-one]: the IC50 against RNR (RNR1:RNR2 1:1) was less than 20 nM; in series [1], no more than 1000 nM. Besides, in the series on human hepatocytes, the Clhep result is listed as “A (0 ml/min/kg ≤ Clhep ≤ 10 ml/min/kg)”.

Consider `CC(=O)c1cc(Cl)cc2c1S(=O)(=O)N([C@H](c1n[nH]c(=O)o1)[C@H](C)c1c(F)ccc(C)c1C)CCO2` [Example 60, 5-((1S,2R)-1-(9-acetyl-7-chloro-1,1-dioxido-3,4-dihydro-2H-benzo[b][1,4,5]oxathiazepin-2-yl)-2-(6-fluoro-2,3-dimethylphenyl)propyl)-1,3,4-oxadiazol-2 (3H)-one], for which the values for the IC50 (at RNR (RNR1:RNR2 1:1); in series [1]) were less than 20 nM and no more than 1000 nM, respectively. In the series with human hepatocytes, the Clhep entry is reported as “B (10 ml/min/kg < Clhep ≤ 20 ml/min/kg)”.

In the case of `COCCCN1CN([C@H](c2n[nH]c(=O)o2)[C@H](C)c2c(F)ccc(C)c2C)S(=O)(=O)c2ccc(Cl)nc21` [Example 48, 5-((1S,2R)-1-(6-chloro-4-(3-methoxypropyl)-1,1-dioxido-3,4-dihydro-2H-pyrido[2,3-e][1,2,4]thiadiazin-2-yl)-2-(6-fluoro-2,3-dimethylphenyl)propyl)-1,3,4-oxadiazol-2 (3H)-one], the results for the IC50 (against RNR (RNR1:RNR2 1:1); in series [1]) were less than 20 nM and no more than 1000 nM, respectively. Moreover, the Clhep entry in the series with human hepatocytes is “A (0 ml/min/kg ≤ Clhep ≤ 10 ml/min/kg)”.

For the molecule `Cc1ccc(F)c([C@@H](C)[C@@H](c2n[nH]c(=O)o2)N2CN(O)c3cc(Cl)ccc3S2(=O)=O)c1C` [Example 120, 5-((1S,2R)-1-(6-chloro-4-hydroxy-1,1-dioxido-3,4-dihydro-2H-benzo[e][1,2,4]thiadiazin-2-yl)-2-(6-fluoro-2,3-dimethylphenyl)propyl)-1,3,4-oxadiazol-2 (3H)-one], the IC50 in series [1] fell in the range of 1000 to 5000 nM. Further, the Clhep result with human hepatocytes is listed as “B (10 ml/min/kg < Clhep ≤ 20 ml/min/kg)”.

With `Cc1ccc(F)c([C@@H](C)[C@@H](c2n[nH]c(=O)o2)N2CN(C)c3nc(Cl)ccc3S2(=O)=O)c1C` [Example 3, 5-((1S,2R)-1-(6-chloro-4-methyl-1,1-dioxido-3,4-dihydro-2H-pyrido[2,3-e][1,2,4]thiadiazin-2-yl)-2-(6-fluoro-2,3-dimethylphenyl)propyl)-1,3,4-oxadiazol-2 (3H)-one], the IC50 is less than 20 nM at RNR (RNR1:RNR2 1:1) and no more than 1000 nM in series [1]. The Clhep result with human hepatocytes was “B (10 ml/min/kg < Clhep ≤ 20 ml/min/kg)”.

With `Cc1ccc(F)c([C@@H](C)[C@@H](c2n[nH]c(=O)o2)N2CN(C3CC(=O)C3)c3cc(Cl)ccc3S2(=O)=O)c1C` [Example 118, 5-((1S,2R)-1-(6-chloro-1,1-dioxido-4-(3-oxocyclobutyl)-3,4-dihydro-2H-benzo[e][1,2,4]thiadiazin-2-yl)-2-(6-fluoro-2,3-dimethylphenyl)propyl)-1,3,4-oxadiazol-2 (3H)-one], the concentration for half-maximal inhibition (IC50) in series [1] is no more than 1000 nM. In the series with human hepatocytes, the Clhep entry is “B (10 ml/min/kg < Clhep ≤ 20 ml/min/kg)”.

Consider `Cc1ccc(F)c([C@@H](C)[C@@H](c2n[nH]c(=O)o2)N2CN(CCO)c3cc(Cl)ccc3S2(=O)=O)c1C` [Example 50, 5-((1S,2R)-1-(6-chloro-4-(2-hydroxyethyl)-1,1-dioxido-3,4-dihydro-2H-benzo[e][1,2,4]thiadiazin-2-yl)-2-(6-fluoro-2,3-dimethylphenyl)propyl)-1,3,4-oxadiazol-2 (3H)-one], for which the IC50 against RNR (RNR1:RNR2 1:1) is less than 20 nM; in series [1] it was no more than 1000 nM. The Clhep entry in the series with human hepatocytes is given as “A (0 ml/min/kg ≤ Clhep ≤ 10 ml/min/kg)”.

`Cc1ccc(F)c([C@@H](C)[C@@H](c2n[nH]c(=O)o2)N2CN([C@@H](C)CO)c3cc(Cl)ccc3S2(=O)=O)c1C` [Example 121, 5-((1S,2R)-1-(6-chloro-4-((S)-1-hydroxypropan-2-yl)-1,1-dioxido-3,4-dihydro-2H-benzo[e][1,2,4]thiadiazin-2-yl)-2-(6-fluoro-2,3-dimethylphenyl)propyl)-1,3,4-oxadiazol-2 (3H)-one]: the IC50 in series [1] was no more than 1000 nM. The Clhep entry in the series with human hepatocytes is on record as “B (10 ml/min/kg < Clhep ≤ 20 ml/min/kg)”.

In series [1], `Cc1ccc(F)c([C@@H](C)[C@@H](c2n[nH]c(=O)o2)N2CN(CCN3CCCC3)c3nc(Cl)ccc3S2(=O)=O)c1C` [Example 92, 5-((1S,2R)-1-(6-chloro-1,1-dioxido-4-(2-(pyrrolidin-1-yl)ethyl)-3,4-dihydro-2H-pyrido[2,3-e][1,2,4]thiadiazin-2-yl)-2-(6-fluoro-2,3-dimethylphenyl)propyl)-1,3,4-oxadiazol-2 (3H)-one] returned an IC50 of 1000 to 5000 nM. The Clhep entry in the series on human hepatocytes was “A (0 ml/min/kg ≤ Clhep ≤ 10 ml/min/kg)”.

In turn, `Cc1ccc(F)c([C@@H](C)[C@@H](c2n[nH]c(=O)o2)N2CN([C@H]3CCOC(C)(C)C3)c3cc(Cl)ccc3S2(=O)=O)c1C` (single isomer, unassigned) [Example 90] came in with an IC50 in series [1] of no more than 1000 nM. Besides, in the series with human hepatocytes, the Clhep result is reported as “B (10 ml/min/kg < Clhep ≤ 20 ml/min/kg)”.

What is called IC50 is the point on the concentration scale where inhibition reaches its midpoint. A low value points to greater potency in that assay.
